The record followed here is the PolyMetriX glass transition set.

`*C(=O)c1ccc2c(c1)C(=O)N(C1CCC(CC3CCC(N4C(=O)c5ccc(*)cc5C4=O)CC3)CC1)C2=O` (repeat unit) yielded a glass transition temperature of 254.00 °C.
In the case of `*C(=O)c1ccc2c(c1)C(=O)N(c1c(-c3ccccc3)cc(-c3ccc(-c4cc(-c5ccccc5)c(N5C(=O)c6ccc(*)cc6C5=O)c(-c5ccccc5)c4)cc3)cc1-c1ccccc1)C2=O` (repeat unit), the glass transition temperature is 265.00 °C.
On to `*C(=S)Nc1ccc(Oc2ccc(NC(=S)N3C(=O)c4ccc(C(=O)c5ccc6c(c5)C(=O)N(*)C6=O)cc4C3=O)cc2)cc1` (repeat unit), for which the glass transition temperature was found to be 262.00 °C.
Molecule `*CC1CC2CC1C1CCC(CN3C(=O)c4ccc(C(=O)c5ccc6c(c5)C(=O)N(*)C6=O)cc4C3=O)C21` (repeat unit) showed a glass transition temperature of 217.00 °C.
Molecule `*CC1CCCC(CN2C(=O)c3ccc(Oc4ccc5c(c4)C(=O)N(*)C5=O)cc3C2=O)C1` (repeat unit) gave a glass transition temperature of 199.00 °C.
On to `*CCCCCCCCCCOc1ccc(OC(=O)c2ccc(OCCOCCOCCOc3ccc(C(=O)Oc4ccc(O*)cc4)cc3)cc2)cc1` (repeat unit), for which the glass transition temperature turned out to be 64.00 °C.
To `*CCCCCCCCN1C(=O)c2ccc(Oc3ccc4c(c3)C(=O)N(*)C4=O)cc2C1=O` (repeat unit) belongs 145.00 °C; to `*CCCCCCCN1C(=O)c2ccc(Oc3ccc4c(c3)C(=O)N(*)C4=O)cc2C1=O` (repeat unit), 110.00 °C.
`*CCCCCCOc1ccc(OC(=O)c2ccc(C(=O)Oc3ccc(O*)cc3)cc2)cc1` (repeat unit) came in with a glass transition temperature of 53.00 °C.
`*CCCCCOc1ccc(OC(=O)c2ccc(C(=O)Oc3ccc(O*)cc3)cc2)cc1` (repeat unit) yielded a glass transition temperature of 112.00 °C.
On to `*CCOC(=O)c1ccc(/C(C#N)=C(\c2ccc(OC)cc2)N2CCC(*)CC2)cc1` (repeat unit), for which the glass transition temperature came out at 167.00 °C.
With `*OP(=O)(Oc1ccccc1)Oc1ccc(*)cc1` (repeat unit), the glass transition temperature came out at 97.00 °C.
On to `*OS(=O)(=O)c1ccc(*)cc1` (repeat unit), for which the glass transition temperature came out at 119.00 °C.
With `*Oc1cc(C(=O)c2ccccc2)c(Oc2ccc(*)cc2)cc1C(=O)c1ccccc1` (repeat unit), the glass transition temperature came out at 137.00 °C.
Under `*Oc1ccc(OC(=O)c2cccc(Sc3ccc(OC(=O)c4ccc(C(=O)Oc5ccc(Sc6cccc(C(*)=O)c6)cc5)cc4)cc3)c2)cc1-c1ccccc1` (repeat unit) stands 128.00 °C; under `*Oc1ccc(Oc2ccc(/C=N/CCCC/N=C/c3ccc(*)cc3)cc2)cc1` (repeat unit), 105.00 °C.
Under `*Oc1ccc(Oc2ccc(/C=N/CCCCCCCCCC/N=C/c3ccc(*)cc3)cc2)cc1` (repeat unit) stands 108.00 °C.
Molecule `*Oc1ccc(Oc2ccc(/C=N/CCCCCCCCCCCC/N=C/c3ccc(*)cc3)cc2)cc1` (repeat unit) showed a glass transition temperature of 118.00 °C.
`*Oc1ccc(Oc2ccc(/C=N/c3ccc(/N=C/c4ccc(*)cc4)cc3)cc2)cc1` (repeat unit) yielded a glass transition temperature of 117.00 °C.
`*Oc1ccc(Oc2ccc(OC(*)=O)cc2)cc1` (repeat unit) came in with a glass transition temperature of 118.00 °C.
The molecule `*Oc1ccc(Oc2ccc(OC(=O)c3ccc(C(c4ccc(C(*)=O)cc4)(C(F)(F)F)C(F)(F)F)cc3)cc2)cc1` (repeat unit) returned a glass transition temperature of 215.00 °C.
To `*Oc1ccc(Oc2ccc(OC(=O)c3cccc(Oc4ccc(Oc5cccc(C(*)=O)c5)cc4)c3)cc2)cc1` (repeat unit) belongs 104.00 °C; to `*Oc1ccc(Oc2ccc(Oc3ccc(Oc4ccc(OC(=O)c5cccc(C(*)=O)c5)cc4)cc3)cc2)cc1` (repeat unit), 134.00 °C; to `*Oc1ccc(Oc2cccc(*)n2)cc1` (repeat unit), 100.00 °C.
`*Oc1ccc(S(=O)(=O)c2ccc(OC(=O)c3cccc(C(*)=O)c3)cc2)cc1` (repeat unit) had a glass transition temperature of 249.00 °C.
For `*Oc1ccc(Sc2ccc(Oc3ccc4c(=O)n5c6cc(Oc7ccc8c(c7)nc7c9ccc(*)c%10cccc(c(=O)n87)c%109)ccc6nc5c5cccc3c45)cc2)cc1` (repeat unit), the glass transition temperature worked out at 346.00 °C.
For the molecule `*Oc1ccc2cc(OC(=O)c3ccc(-c4ccc(C(*)=O)cc4)cc3-c3ccccc3)ccc2c1` (repeat unit), the glass transition temperature is 125.00 °C.
As for `*c1cc(Br)c(Oc2c(Br)cc(N3C(=O)c4ccc(Oc5ccc6c(c5)C(=O)N(*)C6=O)cc4C3=O)cc2Br)c(Br)c1` (repeat unit), the glass transition temperature worked out at 283.00 °C.
As to `*c1cc(C(c2ccc(O)c(N3C(=O)c4ccc(Oc5ccc6c(c5)C(=O)N(*)C6=O)cc4C3=O)c2)(C(F)(F)F)C(F)(F)F)ccc1O` (repeat unit), the glass transition temperature worked out at 266.00 °C.
Turning to `*c1ccc(-c2ccc(N3C(=O)c4ccc(Oc5ccc(Oc6ccc7c(c6)C(=O)N(*)C7=O)cc5)cc4C3=O)cc2)cc1` (repeat unit), the glass transition temperature came out at 266.00 °C.
For the molecule `*c1ccc(-c2ccc(N3C(=O)c4ccc(Oc5ccc(Sc6ccc(Oc7ccc8c(c7)C(=O)N(*)C8=O)cc6)cc5)cc4C3=O)cc2)cc1` (repeat unit), the glass transition temperature came to 257.00 °C.
Under `*c1ccc(C(c2ccc(N3C(=O)c4ccc(Oc5ccc6c(c5)C(=O)N(*)C6=O)cc4C3=O)cc2)(C(F)(F)F)C(F)(F)F)cc1` (repeat unit) stands 305.00 °C; under `*c1ccc(C(c2ccccc2)(c2ccc(N3C(=O)c4ccc(Oc5ccc6c(c5)C(=O)N(*)C6=O)cc4C3=O)cc2)C(F)(F)F)cc1` (repeat unit), 293.00 °C.
On to `*c1ccc(C(c2ccccc2)c2ccc(N3C(=O)c4ccc(Oc5ccc6c(c5)C(=O)N(*)C6=O)cc4C3=O)cc2)cc1` (repeat unit), for which the glass transition temperature is 269.00 °C.
`*c1ccc(Cc2ccc(N3C(=O)c4ccc(Oc5ccc6c(c5)C(=O)N(*)C6=O)cc4C3=O)cc2)cc1` (repeat unit) showed a glass transition temperature of 271.00 °C.
Under `*c1ccc(N2C(=O)c3ccc(Oc4ccc(Sc5ccc(Oc6ccc7c(c6)C(=O)N(*)C7=O)cc5)cc4)cc3C2=O)cc1` (repeat unit) stands 238.00 °C.
As for `*c1ccc(Oc2cc3ccccc3cc2Oc2ccc(N3C(=O)c4ccc(Oc5ccc6c(c5)C(=O)N(*)C6=O)cc4C3=O)cc2)cc1` (repeat unit), the glass transition temperature turned out to be 275.50 °C.
Molecule `*c1ccc(Oc2ccc(N3C(=O)c4ccc(Oc5ccc(Oc6ccc(Oc7ccc8c(c7)C(=O)N(*)C8=O)cc6)cc5)cc4C3=O)cc2)cc1` (repeat unit) returned a glass transition temperature of 215.00 °C.
In the case of `*c1ccc(Oc2ccc(N3C(=O)c4cccc(Oc5ccc(S(=O)(=O)c6ccc(Oc7cccc8c7C(=O)N(*)C8=O)cc6)cc5)c4C3=O)cc2)cc1` (repeat unit), the glass transition temperature was 267.00 °C.
The molecule `*c1ccc(Oc2ccc(Oc3ccc(N4C(=O)c5ccc(Oc6ccc(Oc7ccc(Oc8ccc9c(c8)C(=O)N(*)C9=O)cc7)cc6)cc5C4=O)cc3)cc2)cc1` (repeat unit) displayed a glass transition temperature of 203.00 °C.
The molecule `*c1ccc(Oc2ccc(Oc3ccc(Oc4ccc(N5C(=O)c6ccc(Oc7ccc(Oc8ccc9c(c8)C(=O)N(*)C9=O)cc7)cc6C5=O)cc4)cc3)cc2)cc1` (repeat unit) registered a glass transition temperature of 210.00 °C.
`*c1ccc(Oc2ccc(S(=O)(=O)c3ccc(Oc4ccc(N5C(=O)c6ccc(Oc7ccc(Oc8ccc9c(c8)C(=O)N(*)C9=O)cc7)cc6C5=O)cc4)cc3)cc2)cc1` (repeat unit) came in with a glass transition temperature of 201.00 °C.
`*c1ccc(Oc2ccc(Sc3ccc(Oc4ccc(N5C(=O)c6ccc(Oc7ccc(Oc8ccc(Oc9ccc%10c(c9)C(=O)N(*)C%10=O)cc8)cc7)cc6C5=O)cc4)cc3)cc2)cc1` (repeat unit) showed a glass transition temperature of 194.00 °C.
For `*c1ccc(Oc2cccc(Oc3ccc(N4C(=O)c5cccc(Oc6ccc(S(=O)(=O)c7ccc(Oc8cccc9c8C(=O)N(*)C9=O)cc7)cc6)c5C4=O)cc3)c2)cc1` (repeat unit), the glass transition temperature stood at 230.00 °C.
Regarding `*c1ccc(Oc2ccccc2N2C(=O)c3ccc(Oc4ccc5c(c4)C(=O)N(*)C5=O)cc3C2=O)cc1` (repeat unit), the glass transition temperature worked out at 264.00 °C.
As to `*c1ccc(Oc2ccccc2Oc2ccc(N3C(=O)c4ccc(Oc5ccc6c(c5)C(=O)N(*)C6=O)cc4C3=O)cc2C(F)(F)F)c(C(F)(F)F)c1` (repeat unit), the glass transition temperature is 223.00 °C.
Consider `*c1ccc2cc(OC(=O)c3cccc(C(=O)Oc4ccc5cc(-c6nc7ccccc7nc6*)ccc5c4)c3)ccc2c1` (repeat unit), for which the glass transition temperature came to 151.00 °C.
To `*c1cccc(C(c2ccccc2)(c2cccc(N3C(=O)c4ccc(Oc5ccc6c(c5)C(=O)N(*)C6=O)cc4C3=O)c2)C(F)(F)F)c1` (repeat unit) belongs 293.00 °C; to `*c1cccc(N2C(=O)c3ccc(Oc4ccc(Oc5ccc(Oc6ccc7c(c6)C(=O)N(*)C7=O)cc5)cc4)cc3C2=O)c1` (repeat unit), 227.00 °C.
To `*c1cccc(N2C(=O)c3ccc(Oc4ccc(S(=O)(=O)c5ccc(Oc6ccc7c(c6)C(=O)N(*)C7=O)cc5)cc4)cc3C2=O)c1` (repeat unit) belongs 265.00 °C; to `*c1cccc(N2C(=O)c3ccc(Oc4ccc(Sc5ccc(Oc6ccc7c(c6)C(=O)N(*)C7=O)cc5)cc4)cc3C2=O)c1` (repeat unit), 209.00 °C.
As to `*c1cccc(N2C(=O)c3cccc(Oc4ccc(Oc5ccc(Oc6cccc7c6C(=O)N(*)C7=O)cc5)cc4)c3C2=O)c1` (repeat unit), the glass transition temperature was found to be 238.00 °C.
To `*c1cccc(N2C(=O)c3cccc(Oc4ccc(S(=O)(=O)c5ccc(Oc6cccc7c6C(=O)N(*)C7=O)cc5)cc4)c3C2=O)c1` (repeat unit) belongs 266.00 °C.
In turn, `*c1cccc(Oc2ccc(Oc3cccc(N4C(=O)c5ccc(Oc6ccc7c(c6)C(=O)N(*)C7=O)cc5C4=O)c3)cc2)c1` (repeat unit) registered a glass transition temperature of 204.00 °C.
On to `*c1cccc(S(=O)(=O)c2cccc(N3C(=O)c4ccc(Oc5ccc(S(=O)(=O)c6ccc(Oc7ccc8c(c7)C(=O)N(*)C8=O)cc6)cc5)cc4C3=O)c2)c1` (repeat unit), for which the glass transition temperature came to 205.00 °C.
